Results taken from patent publication US20090162277A1, “Lysophospholipids Solubilized Single-Walled Carbon Nanotubes” (Clemson University, priority 2005, published 2009).
Read-outs that look alike come from different tables or passages of the source.

Assays:
[1] = Solubility assay of SWNTs dispersed in PBS with phospholipids (optical density of supernatant); type: physicochemical
Description: Pristine SWNTs were synthesized using arc-deposition method. The average diameter of the SWNTs was approximately 1.4 nm measured by Raman spectroscopy and the average molecular weight of the SWNTs was 1×10^6 Dalton (Da) estimated from TEM. To measure the solubility provided by pure phospholipids, SWNTs were dispersed in phosphate buffered saline (PBS, pH=7.4) containing phospholipids of varying amounts. […] The weight ratio of solubilized SWNTs to LPC was approximately 1:10 corresponding to a molar ratio of 1:20,000 at saturation (FIG. 2b), indicating the high binding capacity of SWNTs.
Solubility Assays. Glycerol phospholipids and lysoglycerophopholipids were purchased from Avanti Polar Lipids, Inc, AL. Cell growth mediums NB and RPMI fortified with 10% FBS were obtained from Difco and Gibco (Invitrogen), respectively. SWNTs of 1 mg were placed in a series of eppendorf tubes containing lysophospholipids LPC 18:0, PC 24:0, PG 36:2, and PE 32:0 of 10, 40, 100, 400 μg and 1, 4, 10, 40 mg in 1 mL PBS solution. The eppendorf tubes were placed in a water bath and sonicated for 1 hr at room temperature. The solution was centrifuged for 3 min at 6,177 g. Approximately 0.3 mL of the supernatant was transferred into a glass cuvette and read for optical density against a blank at 360 nm. Size Exclusion Chromatography. Sepharose CL-4B beads (Sigma) having an exclusion limit molecular weight of 20×10^6 Da were used for gel filtration chromatography in a 10 mm (diameter)×150 mm (length) open column. The flow rate was produced by gravity at approximately 0.5 mL/min. Samples in 1×PBS of 40 μL were loaded onto the column with 1 M acetic acid as the mobile phase. Molecular weight markers with visible colours were used for calibration. The dark colour of the lysophospholipid dispersed SWNTs was monitored visually by comparing the elution volume with those of standard compounds. SWNT-LPC complexes were centrifuged at 16,060 g and SWNT-LPA complexes centrifuged at 6,177 g for 3 min. Their supernatants were used for size exclusion chromatography. TEM Experiment. Buffered solutions of SWNT-LPC and SWNT-LPG were sonicated for 1 min. The solutions were placed on holey carbon grids for 1 min and the excess drawn off with filter paper. The grid was negatively stained with a 2% uranyl acetate solution for 1 min. The images were recorded at magnification ranges from 400,000 to 600,000 times with the Hitach 7600 transmission electron microscope at 100 and 120 kV. Bioassay. Free lysophospholipids and micelles in SWNT-lysophospholipid solution were removed by filtration through 100 kDa Microcon (Amicon, Inc) centrifugation tubes and washed 4 times. The resulting lysophospholipid-free and micelle-free SWNT-LPC complexes were tested by […] bioassay using colon cancer (CACO-2) and macrophage (THP-1) cell lines. Each cell line was incubated in its own 8-well chamber slide (LabTek) for 48 hr at 37° C. in a CO2 incubator. Prior to treatment, cell adhesion was checked by differential interference contrast (DIC) microscopy using a Zeiss 135 Axiovert inverted microscope. Treatments ranging from 5 to 40 ppm of lysophospholipid-free and micelle-free SWNT-LPC complexes were added to each adherent cell line and incubated for 3 hr at 37° C. in a CO2 incubator. After incubation, control and treated cells were fixed with 4% paraformaldehyde for 30 min, washed in PBS and subjected to an APO-BrdU TUNEL assay (Invitrogen). This assay detects the onset of apoptosis by fluorescent detection of nuclear DNA fragments or DNA breaks. Cells were labeled with deoxythymidine analog 5-bromo-2′-deoxyuridine 5′ triphosphate (BrdUTP) followed by the addition of Alexa-Fluor 488 labeled anti-BrdU antibody. Propidium iodide was used to image the total DNA content of cells. The prepared cells were imaged using a Zeiss 510 LSM confocal fluorescence microscope.

MCF7 cells = assay: Rd-LPE translocation across cell membranes (rhodamine fluorescence imaging); type: cell-based; conditions: incubation 0.5 to 3.0 hours
Procedure: The SWNT lipid assemblies described above may be used to form an “optical switch” using rhodamine-lysophosphoethanolamine (Rd-LPE) and SWNTs. […] The construct of a Rd-LPE molecule and a coupled SWNT functions as a fluorescence resonance energy transfer (FRET) pair. […] FIG. 7A sets forth a control image without SWNTs. Rd-LPE was incubated with MCF7 cells for three hours. […] Images 7C through 7F show increased translocation of Rd-LPE across the MCF7 cells with respective incubation times of 0.5, 1.0, 2.0, and 3.0 hours. […] Further, the fluorescence is indicative that a physical separation between the SWNT and the Rd-LPE has occurred since the quenching effect was not observed.

Compound	solubility of SWNTs provided by the phospholipid [1]	also measured
CCCCCCCCCCCCCC(=O)OC[C@H](COP(=O)([O-])OCC[N+](C)(C)C)OC(=O)CCCCCCCCCCCCC [PC 24:0, dimyristoyl phosphatidyl choline, reference compound]	None of the above phospholipids provided good solubility	–
CCCCCCCCCCCCCCCC(=O)OCC(COP(=O)(O)OCCN)OC(=O)CCCCCCCCCCCCCCC (stereo not shown) [PE 32:0, 1,2-dipalmityolphosphatidylethanolamine, reference compound]	None of the above phospholipids provided good solubility	–
CCCCCCCC/C=C\CCCCCCCC(=O)OCC(COP(=O)(O)OCC(O)CO)OC(=O)CCCCCCC/C=C\CCCCCCCC (stereo not shown) [PG 36:2, 1,2-dioleoylphosphatidylglycerol, reference compound]	None of the above phospholipids provided good solubility	–
lysophosphatidic acid [LPA 16:0]	Comparable solubility	–
lysophosphatidylcholine [LPC 18:0]	–	effectiveness in dispersing SWNTs in PBS relative to SDS, on per molecule basis ([1]; 6,177 g RCF at tip): approximately 2.5 times; effectiveness in dispersing SWNTs relative to SDS ([1]; 16,060 g RCF at tip): one order of magnitude more effective than SDS; solubility of SWNTs provided by the phospholipid ([1]; SWNTs in PBS pH=7.4, sonication 1 hr at room temperature): completely solubilized
lysophosphatidylglycerol [LPG 18:0]	Comparable solubility	solubility of SWNTs compared with SDS [1]: slightly better than SDS
rhodamine-lysophosphoethanolamine [Rd-LPE]	–	translocation across the cell membrane (intracellular rhodamine fluorescence) (MCF7 cells): minimal Rd-LPE translocation
